For experiment [1], the system named is HBV. As to the kind of experiment: HBV infection in HepG2-NTCP cells (HBeAg AlphaLISA in supernatants). The class given is cell-based. The following applies: Hepatitis B virus, 192 h. The method, boiled down: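 Readout was day-8 supernatant HBeAg by AlphaLISA, with EC50 set against DMSO controls and binned A<0.1 μM, B 0.1-1 μM, C>1 μM. Compounds were added 2 h before HBV (2000 GE/cell, 4% PEG, 0.5% DMSO) to HepG2-NTCP A3 cells; from day 1 medium held 2.5% DMSO.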
For orientation: Alpha assays give light when donor and acceptor beads are brought close together.

Experiment [2] relates to HDV. As to the kind of experiment: HDV infection in primary human hepatocytes (PHHs) and RNA quantification (RT-qPCR). The experiment is classed as cell-based. The following applies: Hepatocyte, 192 h, HDV infection of primary human hepatocytes, viral RNA at day 8 post infection. An excerpt:
Primary human hepatocytes (Thermo Fisher Scientific) were thawed in Williams E Medium with CM3000 supplement pack (Thermo Fisher Scientific) and seeded at 70,000 cells/well on collagen-coated 96-well plate. Six hours post-seeding, cell medium was changed to Williams E Medium with CM4000 cell maintenance supplement pack for further culture (Thermo Fisher Scientific). HDV virus collected from the supernatants of HuH7-END cells was purified in the presence of 6% polyethylene glycol (PEG). Viral titer was then quantified by RT-qPCR using HDV specific primers against a reference standard. On the day of infection, compounds were 4-fold serially diluted in DMSO and pre-incubated with PHHs for two hours before infecting with 100 GE/cell of HDV in 4% PEG. On day one post infection, HDV-containing media was aspirated, cells were washed once with PBS and then maintained in 2.5% DMSO containing media for the remainder of the assay. Viral RNA was isolated using RNeasy kits at day 8 post infection and reverse transcribed into cDNA using High-Capacity RNA-to-cDNA Kit. Relative HDV gene expression was quantified by RT-qPCR after normalization to expression of a housekeeping gene. Irrespective of readout, compound concentrations that reduce viral RNA by 50% relative to DMSO controls (EC50) are reported. EC50 ranges are as follows: A<0.1 μM; B 0.1-1 μM; C>1 μM.
For orientation: In qPCR the cycle at which signal appears reflects the starting amount.

In experiment [3] the target is T1, NTCP (Homo sapiens, UniProt Q14973).
T1 construct: expressed in transfected cells; host or cells: HepG2-NTCP (clone A3, kept under puromycin)
T1 sequence (Q14973 1-349): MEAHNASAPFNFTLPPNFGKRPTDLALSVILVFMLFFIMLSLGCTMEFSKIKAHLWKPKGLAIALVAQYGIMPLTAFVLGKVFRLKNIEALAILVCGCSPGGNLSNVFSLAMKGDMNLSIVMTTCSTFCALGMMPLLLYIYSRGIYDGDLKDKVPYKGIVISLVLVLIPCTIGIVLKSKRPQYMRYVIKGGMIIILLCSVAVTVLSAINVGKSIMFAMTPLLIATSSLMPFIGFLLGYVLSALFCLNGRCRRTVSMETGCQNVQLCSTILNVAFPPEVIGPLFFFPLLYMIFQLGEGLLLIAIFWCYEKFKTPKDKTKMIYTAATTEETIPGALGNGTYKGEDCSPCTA
As to the kind of experiment: HepG2-NTCP preS1 binding competition assay (FITC-labeled myristoylated preS1 peptide). The settings on record: HepG2-NTCP cells; competition with FITC-labeled preS1 peptide. As to the method: HepG2-NTCP preS1 Binding Competition Assay
Myristoylated preS1 peptide (2-48 aa) conjugated to a C-terminal FITC tag was synthesized to evaluate preS1 binding to NTCP-expressing cells. HepG2-NTCP cells seeded in 384-wells were pre-treated with compounds for 2 hours prior to the addition of FITC-labeled preS1 peptide. After co-incubation for 30 minutes, unbound FITC-preS1 peptide was washed twice with PBS, and the fluorescence of preS1-FITC bound to cell surface was detected by Envision plate reader. EC50 ranges are as follows: A<0.1 μM; B 0.1-1 μM; C>1 μM.

In experiment [4] the test system is HDV. In words: HDV infection in HepG2-NTCP cells and RNA quantification (RT-qPCR). The settings on record: 288 h; HDV infection of HepG2-NTCP cells; viral RNA by RT-qPCR at day 12 post infection; read-out: Cellular EC50. The experiment is classed as cell-based. As to the method:
HDV virus collected from the supernatants of HuH7-END cells was purified in the presence of 6% polyethylene glycol (PEG). Viral titer was then quantified by RT-qPCR using HDV specific primers against a reference standard. For HDV infection, HepG2-NTCP cells were seeded in 96-well plates at 60,000 cells/well. On the day of infection, compounds were 4-fold serially diluted in DMSO and pre-incubated with HepG2-NTCP cells for two hours before infecting with 800 GE/cell of HDV in 4% PEG. On day one post infection, HDV-containing media was aspirated, cells were washed once with PBS and then maintained in 2.5% DMSO containing media for the remainder of the assay. Viral RNA was isolated using RNeasy kits (Qiagen) at day 12 post infection and reverse transcribed into cDNA using High-Capacity RNA-to-cDNA Kit (Thermo Fisher). Relative HDV gene expression was quantified by RT-qPCR after normalization to expression of a housekeeping gene. Irrespective of readout, compound concentrations that reduce viral RNA by 50% relative to DMSO controls (EC50) are reported. EC50 ranges are as follows: A<0.1 μM; B 0.1-1 μM; C>1 μM.

Where [5] appears, read: HBV infection of HepG2-NTCP cells, HBeAg in supernatants at day 8 post infection, read-out: Cellular EC50.
The mark [6] stands for this setting: Donor 1, read-out: Cellular EC50 (μM) Donor 1.
Setting [7] is: Donor 2, read-out: Cellular EC50 (μM) Donor 2.

Like-named read-outs stand apart in the source and are kept apart here.

For `Cc1cc(-c2cc3c(cc2OCc2ccsc2)N(c2ccccc2)C[C@@H](C2CCCCC2)N(C)S3(=O)=O)sc1C(=O)O` [Example 514], the EC50 in experiment [1] (setting [5]), in experiment [2] (setting [6]) and in experiment [2] (setting [7]) was under 0.1 µM each time.

Consider `CN1[C@H](C2CCCCC2)CN(c2ccccc2)c2cc(OCc3ccsc3)c(-c3ccc(F)c(C(=O)O)c3)cc2S1(=O)=O` [Example 336], for which the EC50 in experiment [1] (setting [5]) and in experiment [2] (setting [6]) was under 0.1 µM in each case.

As to `CN1[C@H](C2CCCCC2)CN(c2ccccc2)c2cc(OC3CC3)c(-c3ccc(F)c(C(=O)O)c3)cc2S1(=O)=O` [Example 372], the EC50 in experiment [1] (setting [5]) and in experiment [2] (setting [6]) was under 0.1 µM each time.

As to `CN1[C@H](C2CCCCC2)CN(c2ccccc2)c2cc(Cl)c(-c3cc(F)c(C(=O)O)s3)cc2S1(=O)=O` [Example 116, (R)-5-(7-chloro-3-cyclohexyl-2-methyl-1,1-dioxido-5-phenyl-2,3,4,5-tetrahydrobenzo[f][1,2,5]thiadiazepin-8-yl)-3-fluorothiophene-2-carboxylic acid], the EC50 is under 100 nM in experiment [3], under 0.1 µM in experiment [1] (setting [5]), under 100 nM in experiment [4] and under 0.1 µM in experiment [2] (setting [6]).

Turning to `CN1[C@H](C2CCCCC2)CN(c2ccccc2)c2cc(F)c(-c3cc(F)c(C(=O)O)s3)cc2S1(=O)=O` [Example 128, (R)-5-(3-cyclohexyl-7-fluoro-2-methyl-1,1-dioxido-5-phenyl-2,3,4,5-tetrahydrobenzo[f][1,2,5]thiadiazepin-8-yl)-3-fluorothiophene-2-carboxylic acid], the EC50 in experiment [1] (setting [5]) and in experiment [2] (setting [7]) was under 0.1 µM each time.

On to `CN1[C@H](C2CCCCC2)CN(c2ccccc2)c2cc(Cl)c(-c3ccc(F)c(C(=O)O)c3)cc2S1(=O)=O` [Example 25, (R)-5-(7-chloro-3-cyclohexyl-2-methyl-1,1-dioxido-5-phenyl-2,3,4,5-tetrahydrobenzo[f][1,2,5]thiadiazepin-8-yl)-2-fluorobenzoic acid], for which the EC50 in experiment [1] (setting [5]) is under 0.1 µM; in experiment [4] it was under 100 nM; in experiment [2] (setting [6]) it was under 0.1 µM; in experiment [2] (setting [7]) it was 0.1 to 1 µM.

For `CN1[C@H](C2CCCCC2)CN(c2ccccc2)c2cc(Cl)c(N3C[C@H](C(=O)O)[C@@H](c4ccccc4)C3)cc2S1(=O)=O` [Example 612], the EC50 in experiment [3] is 100 to 1000 nM; in experiment [1] (setting [5]) it was under 0.1 µM.

On to `CCOc1ccccc1N1C[C@@H](C2CCCCC2)N(C)S(=O)(=O)c2cc(-c3ccc(F)c(C(=O)O)c3)c(Cl)cc21` [Example 307], for which the EC50 in experiment [3] was over 1000 nM; in experiment [1] (read-out: Cellular EC50 (μM)) it was over 1 µM.

`Cc1cc(-c2cc3c(cc2Cl)N(c2ccccc2)C[C@@H](C2CCCCC2)N(C)S3(=O)=O)sc1C(=O)O` [Example 126, (R)-5-(7-chloro-3-cyclohexyl-2-methyl-1,1-dioxido-5-phenyl-2,3,4,5-tetrahydrobenzo[f][1,2,5]thiadiazepin-8-yl)-3-methylthiophene-2-carboxylic acid]: the EC50 was under 0.1 µM in experiment [1] (setting [5]) and under 100 nM in experiment [4].

Consider `CCCS(=O)(=O)Nc1cc(-c2cc3c(cc2Cl)N(c2ccccc2)C[C@@H](C2CCCCC2)N(C)S3(=O)=O)sc1C(=O)O` [Example 275, (R)-5-(7-chloro-3-cyclohexyl-2-methyl-1,1-dioxido-5-phenyl-2,3,4,5-tetrahydrobenzo[f][1,2,5]thiadiazepin-8-yl)-3-(propylsulfonamido)thiophene-2-carboxylic acid], for which the EC50 in experiment [3] was under 100 nM; in experiment [1] (setting [5]) it was under 0.1 µM.

Consider `CN1[C@H](C2CCCCC2)CN(CC2COC2)c2cc(Cl)c(-c3ccc(F)c(C(=O)O)c3)cc2S1(=O)=O` [Example 320], for which the EC50 in experiment [3] was over 1000 nM; in experiment [1] (read-out: Cellular EC50 (μM)) it was over 1 µM.

On to `CN1[C@H](C2CCCCC2)CN(c2ccccc2)c2cc(OC3CCC3)c(-c3ccc(F)c(C(=O)O)c3)cc2S1(=O)=O` [Example 376], for which the EC50 in experiment [1] (setting [5]) and in experiment [2] (setting [6]) was under 0.1 µM throughout.

With `CN1[C@H](C2CCCCC2)CN(C2CCOCC2)c2cc(Cl)c(-c3ccc(F)c(C(=O)O)c3)cc2S1(=O)=O` [Example 321], the EC50 in experiment [3] fell in the range of 100 to 1000 nM; in experiment [1] (setting [5]) it was 0.1 to 1 µM.

In the case of `CN1[C@H](C2CCCCC2)CN(c2ccccc2)c2cc(C34CC(C(F)(F)F)(C3)C4)c(-c3ccc(F)c(C(=O)O)c3)cc2S1(=O)=O` [Example 595], the EC50 in experiment [3] is under 100 nM; in experiment [1] (setting [5]), under 0.1 µM.

With `Cc1cc(-c2cc3c(cc2F)N(c2ccccc2)C[C@@H](C2CCCCC2)N(C)S3(=O)=O)sc1C(=O)O` [Example 127, (R)-5-(3-cyclohexyl-7-fluoro-2-methyl-1,1-dioxido-5-phenyl-2,3,4,5-tetrahydrobenzo[f][1,2,5]thiadiazepin-8-yl)-3-methylthiophene-2-carboxylic acid], the figures for the EC50 in experiment [3], in experiment [1] (setting [5]) and in experiment [2] (setting [7]) were under 100 nM, under 0.1 µM and under 0.1 µM, respectively.

As for `COC(C)(C)COC(=O)Nc1cc(-c2cc3c(cc2Cl)N(c2ccccc2)C[C@@H](C2CCCCC2)N(C)S3(=O)=O)sc1C(=O)O` [Example 239, (R)-5-(7-chloro-3-cyclohexyl-2-methyl-1,1-dioxido-5-phenyl-2,3,4,5-tetrahydrobenzo[f][1,2,5]thiadiazepin-8-yl)-3-(((2-methoxy-2-methylpropoxy)carbonyl)amino)thiophene-2-carboxylic acid], the figures for the EC50 in experiment [3] and in experiment [1] (setting [5]) were under 100 nM and under 0.1 µM, respectively.

For the compound `CCCCCCCOc1cc2c(cc1-c1ccc(F)c(C(=O)O)c1)S(=O)(=O)N(C)[C@H](C1CCCCC1)CN2c1ccccc1` [Example 353], the EC50 in experiment [1] (setting [5]) and in experiment [2] (setting [6]) was under 0.1 µM throughout.

Turning to `CN1[C@H](C2CCCCC2)CN(c2ccccc2)c2cc(Cl)c(N3C[C@H](C(=O)O)[C@@H](C(F)(F)F)C3)cc2S1(=O)=O` [Example 614], the EC50 in experiment [3] is under 100 nM; in experiment [1] (setting [5]), under 0.1 µM.

`CCCCOC(=O)Nc1cc(-c2cc3c(cc2Cl)N(c2ccccc2)C[C@@H](C2CCCCC2)N(C)S3(=O)=O)sc1C(=O)O` [Example 246]: the EC50 in experiment [3] was under 100 nM; in experiment [1] (setting [5]), under 0.1 µM.

As for `CCCCCCS(=O)(=O)Nc1ccc(-c2cc3c(cc2Cl)N(c2ccccc2)C[C@@H](C2CCCCC2)N(C)S3(=O)=O)cc1C(=O)O` [Example 273], the results for the EC50 in experiment [3] and in experiment [1] (setting [5]) were under 100 nM and under 0.1 µM, respectively.

With `COCCOc1cc2c(cc1-c1cc(F)c(C(=O)O)s1)S(=O)(=O)N(C)[C@H](C1CCCCC1)CN2c1ccccc1` [Example 486], the EC50 in experiment [3] is under 100 nM; in experiment [1] (setting [5]), under 0.1 µM.

The EC50 is the concentration at which the effect is half-maximal.

The record behind these values is US20240368096A1 (Enanta Pharmaceuticals, Inc., priority 2022, published 2024).
